ChEMBL document CHEMBL1201862, “PubChem BioAssay data set” (2004)
Activity calls are given as the source filed them.

How the values were obtained:
[1] = growth suppression of beta-catenin-knockout colon cells, dose response, cell-based, HCT116, human colon tumor (AID 1045); type: functional;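 note: HCT116 colon tumor cells with beta catenin knocked out; cells exposed to compound for 60 hours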
[2] = growth suppression of PTEN-null colon cells, dose response, cell-based, HCT116 PTEN knockout (AID 1047); type: functional;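 note: HCT116 colon tumor cells with PTEN knocked out; cells exposed to compound for 60 hours before readout; potency for loss of cell viability measured by luminescence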
[3] = biological target: T1, Rac GTPase-activating protein 1 (Homo sapiens, UniProt Q9H0H5); experiment: MgcRacGAP GTPase-activating activity inhibitors, confirmation, biochemical, ADP Hunter fluorescence, primary and confirmatory (AID 624330); type: functional
T1 sequence (Q9H0H5 whole entry): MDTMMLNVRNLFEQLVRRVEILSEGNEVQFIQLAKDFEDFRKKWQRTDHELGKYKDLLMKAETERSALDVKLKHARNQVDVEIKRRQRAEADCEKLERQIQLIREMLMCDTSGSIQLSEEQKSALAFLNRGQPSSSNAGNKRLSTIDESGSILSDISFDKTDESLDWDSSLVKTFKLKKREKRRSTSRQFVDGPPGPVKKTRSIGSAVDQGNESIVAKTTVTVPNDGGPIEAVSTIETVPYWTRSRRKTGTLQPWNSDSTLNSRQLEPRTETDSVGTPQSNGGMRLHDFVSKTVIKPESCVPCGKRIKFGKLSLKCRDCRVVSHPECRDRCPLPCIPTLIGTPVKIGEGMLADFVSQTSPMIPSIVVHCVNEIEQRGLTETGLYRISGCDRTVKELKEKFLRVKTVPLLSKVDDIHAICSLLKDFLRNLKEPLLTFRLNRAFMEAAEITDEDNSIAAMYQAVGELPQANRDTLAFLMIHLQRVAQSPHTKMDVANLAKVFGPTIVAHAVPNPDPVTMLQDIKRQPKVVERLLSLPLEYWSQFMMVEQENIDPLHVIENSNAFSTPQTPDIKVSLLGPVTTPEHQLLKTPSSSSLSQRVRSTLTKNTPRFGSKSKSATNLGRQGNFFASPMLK

[4] = biological target: T2, Polyadenylate-binding protein 1 (Homo sapiens, UniProt P11940); experiment: PABP1 MLLE–PAM2 interaction inhibitors, dose response, miRNA deadenylation inhibitor project, biochemical, fluorescence polarization, Cy5-PAM2 peptide, secondary (AID 602260); type: functional; settings: read-out: IC50_Mean
T2 sequence (P11940 whole entry): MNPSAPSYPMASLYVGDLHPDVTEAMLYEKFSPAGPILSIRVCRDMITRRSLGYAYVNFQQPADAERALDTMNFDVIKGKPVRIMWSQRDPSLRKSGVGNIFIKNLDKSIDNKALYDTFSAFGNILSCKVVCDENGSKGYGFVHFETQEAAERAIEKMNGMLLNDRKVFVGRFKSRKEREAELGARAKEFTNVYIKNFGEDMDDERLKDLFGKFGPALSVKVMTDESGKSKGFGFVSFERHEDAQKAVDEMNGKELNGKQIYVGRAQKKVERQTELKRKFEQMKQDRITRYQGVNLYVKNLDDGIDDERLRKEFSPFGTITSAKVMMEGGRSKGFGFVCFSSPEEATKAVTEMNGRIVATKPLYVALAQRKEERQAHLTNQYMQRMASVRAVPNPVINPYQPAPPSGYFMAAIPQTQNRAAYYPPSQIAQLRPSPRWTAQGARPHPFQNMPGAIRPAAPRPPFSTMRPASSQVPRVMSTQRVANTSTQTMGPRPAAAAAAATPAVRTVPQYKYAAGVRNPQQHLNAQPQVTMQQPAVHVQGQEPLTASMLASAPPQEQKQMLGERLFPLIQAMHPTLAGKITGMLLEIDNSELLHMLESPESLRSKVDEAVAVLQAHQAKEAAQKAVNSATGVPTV

[5] = biological target: T2, Polyadenylate-binding protein 1; experiment: PABP1 MLLE–PAM2 binding inhibitor potency, dose response, biochemical, fluorescence polarization, FITC-PAM2 peptide (AID 602259); type: functional; settings: read-out: IC50_Mean
[6] = test system: H9c2; experiment: cells; type: functional, cell-based; settings: Rattus norvegicus, H9c2, Myocardium;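 note: confirmatory concentration-response retest of ultra-high-throughput screening hits for modulation of myocardial damage; cell death induced by hydrogen peroxide oxidative stress; compound pretreatment for 60 min then peroxide exposure for 2 h; potency is for protecting the cells against peroxide damage rather than for killing them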
[7] = biological target: T3, RNA-binding protein pos-1 (Caenorhabditis elegans, UniProt G5EF15); experiment: inhibitors of POS-1/mex-3 RNA binding, dose response, biochemical, fluorescence polarization (AID 1964);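 note: purified POS-1 fused to maltose binding protein made in E. coli; potency of compounds blocking POS-1 binding to fluorescent RNA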
T3 sequence (G5EF15 whole entry): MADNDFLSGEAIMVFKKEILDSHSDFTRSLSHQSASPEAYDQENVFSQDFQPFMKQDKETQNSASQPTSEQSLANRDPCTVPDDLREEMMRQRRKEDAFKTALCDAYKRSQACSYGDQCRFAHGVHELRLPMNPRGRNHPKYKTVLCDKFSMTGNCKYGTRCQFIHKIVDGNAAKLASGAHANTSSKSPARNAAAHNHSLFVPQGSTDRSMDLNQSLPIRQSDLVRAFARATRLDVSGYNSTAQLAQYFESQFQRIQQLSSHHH

[8] = biological target: T4, Zinc finger protein mex-5 (Caenorhabditis elegans, UniProt Q9XUB2); experiment: MEX-5/TCR-2 RNA interaction inhibitors, dose response, biochemical, C. elegans, fluorescence polarization (AID 1960)
T4 sequence (Q9XUB2 whole entry): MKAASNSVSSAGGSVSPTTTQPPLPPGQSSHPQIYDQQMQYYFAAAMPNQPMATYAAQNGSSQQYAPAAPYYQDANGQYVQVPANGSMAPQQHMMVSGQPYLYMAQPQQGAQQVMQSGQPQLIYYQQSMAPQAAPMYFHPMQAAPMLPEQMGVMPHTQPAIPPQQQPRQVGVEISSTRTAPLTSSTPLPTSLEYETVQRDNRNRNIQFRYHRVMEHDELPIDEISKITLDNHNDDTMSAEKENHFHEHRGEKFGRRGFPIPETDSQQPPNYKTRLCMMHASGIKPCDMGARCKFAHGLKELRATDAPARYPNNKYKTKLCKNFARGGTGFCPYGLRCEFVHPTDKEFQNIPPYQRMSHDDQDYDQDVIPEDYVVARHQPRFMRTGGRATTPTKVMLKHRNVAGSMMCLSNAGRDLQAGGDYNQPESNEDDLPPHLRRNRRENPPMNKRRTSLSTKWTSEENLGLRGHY

[9] = biological target: T5, Leucine aminopeptidase (Plasmodium falciparum 3D7, UniProt Q8IL11); experiment: P. falciparum M17LAP inhibitors, primary screen, biochemical, fluorogenic H-Leu-NHMec substrate, 1536-well (AID 1619); type: functional
T5 sequence (Q8IL11 whole entry): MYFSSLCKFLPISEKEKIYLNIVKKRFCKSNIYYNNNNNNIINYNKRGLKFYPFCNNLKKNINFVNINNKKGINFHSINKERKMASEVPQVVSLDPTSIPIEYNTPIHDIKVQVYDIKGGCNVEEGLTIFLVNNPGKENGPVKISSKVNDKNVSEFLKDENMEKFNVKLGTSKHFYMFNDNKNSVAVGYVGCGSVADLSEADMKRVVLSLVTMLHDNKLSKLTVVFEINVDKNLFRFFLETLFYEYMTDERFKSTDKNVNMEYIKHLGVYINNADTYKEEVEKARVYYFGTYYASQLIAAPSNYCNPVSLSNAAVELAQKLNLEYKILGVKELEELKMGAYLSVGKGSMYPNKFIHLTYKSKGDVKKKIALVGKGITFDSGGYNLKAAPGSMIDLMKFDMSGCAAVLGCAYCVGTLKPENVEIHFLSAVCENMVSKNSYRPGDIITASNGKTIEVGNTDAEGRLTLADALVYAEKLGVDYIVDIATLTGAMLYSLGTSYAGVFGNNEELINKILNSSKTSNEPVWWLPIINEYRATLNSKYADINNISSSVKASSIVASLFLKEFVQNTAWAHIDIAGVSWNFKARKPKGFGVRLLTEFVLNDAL

[10] = C. albicans growth with fluconazole, confirmation, fluorescence, retest (AID 2467); type: functional, cell-based
[11] = Luminescence Cell-Based Dose Retest to Confirm Inhibitors of Cancer Stem Cells. [Related pubchem assays (depositor defined):AID2717, AID2721]; type: functional; settings: Homo sapiens
[12] = NIH-3T3 fibroblast cytotoxicity, dose response, cytotoxicity control, cell-based, fluorescence, Alamar Blue, secondary assay (AID 2327); type: functional;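 note: NIH-3T3 mouse fibroblasts cultured with fluconazole at 8 µg/mL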
[13] = cytotoxicity toward NIH3T3 fibroblasts, dose response, counter-screen, cell-based, ATP luminescence, mouse fibroblasts (AID 2010); type: functional;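 note: cells exposed to compound for about 90 hours before reading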
[14] = test system: Streptococcus sp. 'group A'; experiment: growth inhibition of control SK(-) GAS strain, dose response, counter-screen for streptokinase expression inhibitor project, luminescence, kanamycin, BacTiterGlo, confirmation (AID 1900); type: functional, organism-based
[15] = inhibitors of intracellular T. cruzi replication, confirmation, NIH3T3 host cells, beta-gal luminescence (AID 2044); type: functional, cell-based;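 note: intracellular parasites grown in NIH/3T3 mouse fibroblasts as host cells; luminescent beta-galactosidase reporter signal from transgenic T. cruzi replicating inside host cells; inhibitors lower the luminescence signal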
[16] = biological target: T6, Streptokinase A (Streptococcus pyogenes serotype M1, UniProt P10520); experiment: S. pyogenes streptokinase expression inhibitors, potency, dose response, plasminogen activation absorbance, OD405 (AID 1914); type: functional, Streptococcus pyogenes M1 GAS;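 note: secreted streptokinase activity via plasminogen activation per viability signal from cell pellet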
T6 sequence (P10520 whole entry): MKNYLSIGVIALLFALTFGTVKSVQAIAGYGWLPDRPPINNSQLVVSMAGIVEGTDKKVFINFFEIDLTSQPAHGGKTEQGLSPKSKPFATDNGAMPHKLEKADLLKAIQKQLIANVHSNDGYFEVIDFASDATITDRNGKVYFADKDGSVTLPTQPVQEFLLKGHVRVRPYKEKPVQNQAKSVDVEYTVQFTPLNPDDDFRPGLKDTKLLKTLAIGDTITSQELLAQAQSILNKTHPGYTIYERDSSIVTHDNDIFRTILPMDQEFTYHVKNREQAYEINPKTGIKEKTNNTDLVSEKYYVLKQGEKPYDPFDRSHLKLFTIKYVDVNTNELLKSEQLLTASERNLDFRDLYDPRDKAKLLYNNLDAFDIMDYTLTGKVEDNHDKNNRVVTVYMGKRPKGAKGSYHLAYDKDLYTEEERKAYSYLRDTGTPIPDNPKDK

[17] = test system: Streptococcus; experiment: Group A Streptococcus viability loss, dose response, counter-screen for streptokinase expression inhibitor project, luminescence, BacTiterGlo (AID 1915); type: functional, organism-based;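 note: potency for reduction of bacterial viability or growth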
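Throughout, for AC50: cells exposed to compound for roughly 70 hours or longer before luminescence read.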

Cn1c(CCN2CCCCC2)nc2cc(NS(=O)(=O)c3ccc(F)cc3)ccc21
EC50 [1]: 55.9 µM (active) | EC50 [2]: 51.6 µM (active)

CN(C)c1cc2c3ccccc3n(C)c2cc1N
IC50 [3]: 12.7 µM (active) | IC50 [4]: > 66 µM (inactive) | IC50 [5]: 22.8 µM (inactive)

CC(=O)Nc1cccc(NC(=O)Cc2nc(-c3ccccc3)sc2-c2ccc(C)cc2)c1
EC50 [1]: 16.6 µM (active) | EC50 [2]: 17.1 µM (active)

CCCN1C(=O)c2cc(C(=O)Nc3cccc(C(C)=O)c3)ccc2C1Nc1cccc(C(C)=O)c1 (centres undefined)
IC50 [6]: > 79 µM (inactive)

O=C(COC(=O)c1c2c(nc3ccccc13)/C(=C/c1cccc([N+](=O)[O-])c1)CCC2)NC1CCS(=O)(=O)C1 (centres undefined)
IC50 [6]: 11.1 µM (active)

O=C(/C=C/c1ccc(-c2ccccc2[N+](=O)[O-])o1)c1ccco1
IC50 [4]: > 66 µM (inactive) | IC50 [5]: > 66 µM (inactive)

COc1ccc(Nc2nc(Nc3ccc(OC)cc3OC)nc(N3CCN(C)CC3)n2)c(OC)c1
IC50 [6]: > 79 µM (inactive)

O=c1c2ccccc2nc(CSc2[nH]cnc3ncnc2-3)n1-c1ccc(Cl)c(Cl)c1
IC50 [6]: > 79 µM (inactive)

CCOc1ccccc1NC(=O)Nc1ccc(OC)nc1
IC50 [4]: > 66 µM (inactive) | EC50 [7]: 31.6 µM (active) | IC50 [5]: 35.9 µM (inactive) | EC50 [8]: 29.5 µM (active)

COc1ccc(-c2cc(=O)oc3cc(OC(C)C(=O)O)ccc23)cc1 (centres undefined)
IC50 [9]: 43.9 µM (active)

Cc1ccc(C2(c3noc(CN4CCC(c5ccncc5)CC4)n3)CCCC2)cc1
EC50 [10]: > 38 µM (not active) | AC50 [11]: 0.772 µM (active) | EC50 [12]: 19.7 µM (active)

CC(=O)Nc1sc(C)c(C)c1C(=O)OCC(=O)Nc1cc(S(=O)(=O)N2CCCCC2)ccc1Cl
EC50 [1]: 133 µM (active) | EC50 [2]: 43.1 µM (active)

O=C(CSc1nnc(NC2CCCCC2)s1)NN1C(=O)NC2(CCCCC2)C1=O
IC50 [9]: 10.5 µM (active)

COc1cc(C(=O)Nc2cccc(-c3nnc(-c4ccco4)o3)c2)ccc1OC(C)=O
IC50 [6]: > 79 µM (inactive)

Cc1cc2cc(CNC(=O)c3ccc4c(c3)OCO4)ccc2n1C
IC50 [4]: > 66 µM (inactive) | IC50 [5]: > 66 µM (inactive)

CC(C)C(NC(=O)c1cccs1)C(=O)NC1=NCCS1 (centres undefined)
IC50 [4]: > 66 µM (inactive) | IC50 [5]: > 66 µM (inactive)

Cc1ccc(N(CC(N)=O)C2SC(=O)N(Cc3ccccc3)C2=O)cc1 (centres undefined)
IC50 [4]: > 66 µM (inactive) | IC50 [5]: > 66 µM (inactive)

CC1=C(C(=O)Nc2ccc([N+](=O)[O-])cc2)C(c2cccc(C(F)(F)F)c2)N=C(S)N1c1ccccc1 (centres undefined)
EC50 [13]: > 60 µM (inconclusive) | EC50 [14]: 7.84 µM (active) | EC50 [15]: 2.05 µM (active) | EC50 [16]: 18.8 µM (active) | EC50 [1]: 11.5 µM (active) | EC50 [2]: 9.06 µM (active) | EC50 [17]: 20.5 µM (active)

COc1cccc(/C=C2/SC(=O)N(CC(=O)N3CCc4ccccc4C3)C2=O)c1OCC(=O)O
IC50 [9]: 16.2 µM (active)

Cn1nc(C(F)(F)F)c(C(=O)Nc2cccc(C(F)(F)F)c2)c1SCc1ccc(Cl)cc1
AC50 [11]: 6.27 µM (active) | EC50 [1]: 26.7 µM (active) | EC50 [2]: 22.4 µM (active)

CCN(c1ccccc1)S(=O)(=O)c1ccc(Cl)c(NC(=O)CN(C)C2CCN(C)CC2)c1
EC50 [13]: > 60 µM (not active) | EC50 [15]: 0.395 µM (active) | EC50 [10]: 3.82 µM (active) | IC50 [3]: 80.2 µM (active) | EC50 [12]: > 150 µM (inactive)

O=C(NCCCCNC(=O)c1nc[nH]c1C(=O)Nc1cccc(Cl)c1)c1nc[nH]c1C(=O)Nc1cccc(Cl)c1
IC50 [6]: > 79 µM (inactive)

Cc1ccc(-c2nc3ccccc3o2)cc1NC(=S)NC(=O)c1cc2ccccc2o1
EC50 [1]: 4.68 µM (active) | EC50 [2]: 5.17 µM (active)

Sc1ncnc2c1ncn2C1CCCO1 (centres undefined)
IC50 [4]: > 66 µM (inactive) | IC50 [5]: > 66 µM (inactive)

CCOC(=O)c1cn(-c2ccc(F)c(F)c2)c2c(F)c(F)c(F)c(F)c2c1=O
EC50 [1]: 22.4 µM (active) | EC50 [2]: 19.5 µM (active)

Cc1ccc(NC(=O)CSc2nnc(NC(=O)CN3CCOCC3)s2)cc1
IC50 [9]: 9.15 µM (active)

O=C(N/N=C/c1cn(-c2ccccc2)nc1-c1cccnc1)c1cccnc1
IC50 [6]: > 79 µM (inactive)

Cc1ccc([N+](=O)[O-])cc1NC(=S)NC(=O)c1cccnc1
IC50 [4]: > 66 µM (inactive) | IC50 [5]: > 66 µM (inactive)

Oc1cc(-c2ccccc2)nc2nc(COc3ccccc3)nn12
IC50 [9]: 7.61 µM (active)

Cc1cccc(Nc2nc(N)nc(CC(=O)CSc3ccc(Cl)cc3)n2)c1
EC50 [1]: 35.6 µM (active) | EC50 [2]: 56 µM (active)

O=C(COC(=O)Cn1[nH]c(=O)c2ccccc2c1=O)Nc1c(Cl)cccc1C(F)(F)F
IC50 [6]: > 79 µM (inactive)

COC(=O)c1ccccc1NC(=O)CN1C(=O)c2ccccc2S1(=O)=O
IC50 [9]: 18.1 µM (active)

Cc1noc(NS(=O)(=O)c2ccc(N/C=C\C(=O)c3ccc4c(c3)OCO4)cc2)c1C
IC50 [9]: 13.9 µM (active)
